Results taken from patent EP1925205A1, “Plant propagation material treatment nematicides” (priority 2006, dated 2008).
Several values for one entry are separate records, joined by “and”; a condition that tells them apart may be missing. Equal values may be shown once. Read-outs that look alike come from different tables or passages of the source.

Columns and labels:
Assay type in all cases: in vivo, Meloidogyne incognita
Meloidogyne spp. = test: General statement of effectiveness against nematodes by plant propagation material treatment
M. incognita [1] = details: for Efficacy (%): DS formulation, inoculated 14 days after sowing, galling 28 days after inoculation; for average rating (gall rating, score 0.1-7): tomato, untreated control 4.6
M. incognita [2] = test: Example 5: nematode control by tomato seed treatment, root galling (index adapted from Zeck); details: for Efficacy (%): tomato seeds, DS formulation, inoculated 14 days after sowing, galling 28 days after inoculation
M. incognita [3] = details: for Efficacy (%): DS formulation, inoculated 14 days after sowing, galling 28 days after inoculation; for average rating (gall rating, score 0.1-7): tomato, untreated control 4.1
M. incognita [4] = test: Example 6: nematode control by cotton seed treatment, root galling (index adapted from Zeck); details: for Efficacy (%): cotton seeds, DS formulation, inoculated 14 days after sowing, galling 28 days after inoculation; for average rating (gall rating, score 0.1-7): cotton, untreated control 2.0
M. incognita [5] = test: Example 1: nematode control by tomato seed treatment, root galling (index adapted from Zeck), two exposure timings; details: for Efficacy (%) at the two-week exposure / Efficacy (%) at the four-week exposure: tomato seeds, DS formulation, galling 28 days after inoculation; for Efficacy (%) at the two-week exposure: inoculated 14 days after sowing, 6000 eggs; for Efficacy (%) at the four-week exposure: inoculated 28 days after sowing, 9000 eggs; for average rating (gall rating, score 0.1-7): tomato
M. incognita [6] = test: Example 4: nematode control by tomato seed treatment, root galling (index adapted from Zeck); details: for Efficacy (%) / germination of treated seeds: tomato seeds; for Efficacy (%): Methiocarb FS500, Thiodicarb DS, inoculated 14 days after sowing, galling 28 days after inoculation; for germination of treated seeds: FS500 formulation; for average rating (gall rating, score 0.1-7): tomato, untreated control 4.3
[7] = tomato seeds, 0.03 mg a.i./seed
[8] = tomato seeds, 0.01 mg a.i./seed
[9] = 1 mg a.i./seed, inoculated at 14 days after sowing, untreated control 3.5
[10] = 1 mg a.i./seed, inoculated at 28 days after sowing, untreated control 2.9

CNC(=O)O/N=C/C(C)(C)SC [Aldicarb]
effective against Meloidogyne spp., for example, Meloidogyne incognita (Meloidogyne spp.): effective | Efficacy (%) (M. incognita [1]; [7]): 5.8% | Efficacy (%) (M. incognita [1]; tomato seeds, 0.1 mg a.i./seed): 5.8% | Efficacy (%) (M. incognita [1]; tomato seeds, 0.3 mg a.i./seed): 11.2% | Efficacy (%) (M. incognita [1]; tomato seeds, 1 mg a.i./seed): 16.7% | average rating (gall rating, score 0.1-7) (M. incognita [1]; 1 mg /seed): 3.8

CCCCNC(=O)n1c(NC(=O)OC)nc2ccccc21 [Benomyl]
Efficacy (%) (M. incognita [2]; 0.1 mg a.i./seed): 0% | Efficacy (%) (M. incognita [2]; 0.3 mg a.i./seed): 2.0% | Efficacy (%) (M. incognita [2]; 1 mg a.i./seed): 0% | average rating (gall rating, score 0.1-7) (M. incognita [2]; tomato, 1 mg a.i./seed, untreated control 4.2): The untreated control plants have an average rating of 4.2. Benomyl at 1 mg a.i. /seed is also rated at 4.2.

CCOP(=O)(SC(C)CC)SC(C)CC (stereo not drawn) [Cadusafos]
effective against Meloidogyne spp., for example, Meloidogyne incognita (Meloidogyne spp.): effective | germination of treated seeds (M. incognita [3]; tomato seeds, 1 mg a.i./seed): did not germinate | Efficacy (%) (M. incognita [3]; [8]): 0% | Efficacy (%) (M. incognita [3]; [7]): 0% | Efficacy (%) (M. incognita [3]; tomato seeds, 0.1 mg a.i./seed): 2.0% | Efficacy (%) (M. incognita [3]; tomato seeds, 0.3 mg a.i./seed): 14.3% | average rating (gall rating, score 0.1-7) (M. incognita [3]; 0.3 mg /seed): 3.5 | Efficacy (%) (M. incognita [4]; 0.01 mg a.i./seed): 0% | Efficacy (%) (M. incognita [4]; 0.03 mg a.i./seed): 0% | Efficacy (%) (M. incognita [4]; 0.1 mg a.i./seed): 8.3% | Efficacy (%) (M. incognita [4]; 0.3 mg a.i./seed): 77.5% | Efficacy (%) (M. incognita [4]; 1 mg a.i./seed): 86.7% | average rating (gall rating, score 0.1-7) (M. incognita [4]; 0.3 mg /seed): 0.5 | average rating (gall rating, score 0.1-7) (M. incognita [4]; 1 mg a.i./seed): 0.3

CCOP(=S)(OCC)Oc1nc(Cl)c(Cl)cc1Cl [Chlorpyrifos]
Efficacy (%) (M. incognita [3]; [8]): 0% | Efficacy (%) (M. incognita [3]; [7]): 0% | Efficacy (%) (M. incognita [3]; tomato seeds, 0.1 mg a.i./seed): 0% | Efficacy (%) (M. incognita [3]; tomato seeds, 0.3 mg a.i./seed): 0% | Efficacy (%) (M. incognita [3]; tomato seeds, 1 mg a.i./seed): 0% | average rating (gall rating, score 0.1-7) (M. incognita [3]; 1 mg /seed): 4.3

CCOP(=S)(OCC)Oc1cc(C)nc(C(C)C)n1 [Diazinon]
Efficacy (%) (M. incognita [3]; [8]): 0% | Efficacy (%) (M. incognita [3]; [7]): 0% | Efficacy (%) (M. incognita [3]; tomato seeds, 0.1 mg a.i./seed): 0% | Efficacy (%) (M. incognita [3]; tomato seeds, 0.3 mg a.i./seed): 0% | Efficacy (%) (M. incognita [3]; tomato seeds, 1 mg a.i./seed): 0% | average rating (gall rating, score 0.1-7) (M. incognita [3]; 1 mg /seed): 4.2

CCOP(=S)(OCC)Oc1ccc(Cl)cc1Cl [Dichlofenthion]
Efficacy (%) (M. incognita [3]; [8]): 0% | Efficacy (%) (M. incognita [3]; [7]): 0% | Efficacy (%) (M. incognita [3]; tomato seeds, 0.1 mg a.i./seed): 0% | Efficacy (%) (M. incognita [3]; tomato seeds, 0.3 mg a.i./seed): 0% | Efficacy (%) (M. incognita [3]; tomato seeds, 1 mg a.i./seed): 0% | average rating (gall rating, score 0.1-7) (M. incognita [3]; 1 mg /seed): 4.7

CNC(=O)CSP(=S)(OC)OC [Dimethoate]
Efficacy (%) (M. incognita [3]; [8]): 0% | Efficacy (%) (M. incognita [3]; [7]): 2.0% | Efficacy (%) (M. incognita [3]; tomato seeds, 0.1 mg a.i./seed): 2.0% | Efficacy (%) (M. incognita [3]; tomato seeds, 0.3 mg a.i./seed): 0% | Efficacy (%) (M. incognita [3]; tomato seeds, 1 mg a.i./seed): 0% | average rating (gall rating, score 0.1-7) (M. incognita [3]; 1 mg /seed): 4.3

CCCSP(=O)(OCC)SCCC [Ethoprofos, Ethoprophos]
germination of treated seeds (M. incognita [1]; tomato seeds, 1 mg a.i./seed): did not germinate | Efficacy (%) (M. incognita [1]; [7]): 4.0% | Efficacy (%) (M. incognita [1]; tomato seeds, 0.1 mg a.i./seed): 2.2% | Efficacy (%) (M. incognita [1]; tomato seeds, 0.3 mg a.i./seed): 2.2% | average rating (gall rating, score 0.1-7) (M. incognita [1]; 0.3 mg /seed): 4.5

CCOP(=S)(OCC)Oc1ccc([S+](C)[O-])cc1 (stereo not drawn) [Fensulfothion]
effective against Meloidogyne spp., for example, Meloidogyne incognita (Meloidogyne spp.): effective | Efficacy (%) (M. incognita [3]; [8]): 0% | Efficacy (%) (M. incognita [3]; [7]): 2.0% | Efficacy (%) (M. incognita [3]; tomato seeds, 0.1 mg a.i./seed): 0% | Efficacy (%) (M. incognita [3]; tomato seeds, 0.3 mg a.i./seed): 0% | Efficacy (%) (M. incognita [3]; tomato seeds, 1 mg a.i./seed): 20.4% | average rating (gall rating, score 0.1-7) (M. incognita [3]; 1 mg /seed): 3.3

CCOP(=O)(SC(C)CC)N1CCSC1=O (stereo not drawn) [Fosthiazate]
effective against Meloidogyne spp., for example, Meloidogyne incognita (Meloidogyne spp.): effective | Efficacy (%) at the two-week exposure (M. incognita [5]; 0.03 mg a.i./seed): 0% | Efficacy (%) at the four-week exposure (M. incognita [5]; 0.03 mg a.i./seed): 0% | Efficacy (%) at the two-week exposure (M. incognita [5]; 0.1 mg a.i./seed): 40% | Efficacy (%) at the four-week exposure (M. incognita [5]; 0.1 mg a.i./seed): 0% | Efficacy (%) at the two-week exposure (M. incognita [5]; 0.3 mg a.i./seed): 28.6% | Efficacy (%) at the four-week exposure (M. incognita [5]; 0.3 mg a.i./seed): 10.9% | Efficacy (%) at the two-week exposure (M. incognita [5]; 1 mg a.i./seed): 59% and 59.4% | Efficacy (%) at the four-week exposure (M. incognita [5]; 1 mg a.i./seed): 40% | average rating (gall rating, score 0.1-7) (M. incognita [5]; [9]): 1.4 | average rating (gall rating, score 0.1-7) (M. incognita [5]; [10]): 1.8

CCOP(=S)(OCC)Oc1nc(Cl)n(C(C)C)n1 [Isazofos]
effective against Meloidogyne spp., for example, Meloidogyne incognita (Meloidogyne spp.): effective | Efficacy (%) (M. incognita [1]; [7]): 4.0% | Efficacy (%) (M. incognita [1]; tomato seeds, 0.1 mg a.i./seed): 2.2% | Efficacy (%) (M. incognita [1]; tomato seeds, 0.3 mg a.i./seed): 34.8% | Efficacy (%) (M. incognita [1]; tomato seeds, 1 mg a.i./seed): 87.0% | average rating (gall rating, score 0.1-7) (M. incognita [1]; 1 mg /seed): 0.6

CNC(=O)Oc1cc(C)c(SC)c(C)c1 [Methiocarb]
Efficacy (%) (M. incognita [6]; 0.01 mg a.i./seed): 3.8% | Efficacy (%) (M. incognita [6]; 0.03 mg a.i./seed): 3.8% | Efficacy (%) (M. incognita [6]; 0.1 mg a.i./seed): 1.9% | germination of treated seeds (M. incognita [6]; 0.3 mg /seed): only 1 seed out of 6 germinated | Efficacy (%) (M. incognita [6]; 0.3 mg a.i./seed): 0% | germination of treated seeds (M. incognita [6]; 1 mg a.i./seed): did not germinate | average rating (gall rating, score 0.1-7) (M. incognita [6]; 0.1 mg /seed): 4.3 | average rating (gall rating, score 0.1-7) (M. incognita [6]; 0.3 mg /seed, only one germinated plant): 4.5

CNC(=O)O/N=C(\SC)C(=O)N(C)C [Oxamyl]
Efficacy (%) at the two-week exposure (M. incognita [5]; 0.03 mg a.i./seed): 7.1% | Efficacy (%) at the four-week exposure (M. incognita [5]; 0.03 mg a.i./seed): 0% | Efficacy (%) at the two-week exposure (M. incognita [5]; 0.1 mg a.i./seed): 0% | Efficacy (%) at the four-week exposure (M. incognita [5]; 0.1 mg a.i./seed): 2.9% | Efficacy (%) at the two-week exposure (M. incognita [5]; 0.3 mg a.i./seed): 0% | Efficacy (%) at the four-week exposure (M. incognita [5]; 0.3 mg a.i./seed): 0% | Efficacy (%) at the two-week exposure (M. incognita [5]; 1 mg a.i./seed): 0% | Efficacy (%) at the four-week exposure (M. incognita [5]; 1 mg a.i./seed): 4.5% | average rating (gall rating, score 0.1-7) (M. incognita [5]; [9]): 3.5 | average rating (gall rating, score 0.1-7) (M. incognita [5]; [10]): 2.8

CCOP(=S)(OCC)SCSCC [Phorate]
Efficacy (%) (M. incognita [1]; [7]): 22.1% | Efficacy (%) (M. incognita [1]; tomato seeds, 0.1 mg a.i./seed): 2.2% | Efficacy (%) (M. incognita [1]; tomato seeds, 0.3 mg a.i./seed): 2.2% | Efficacy (%) (M. incognita [1]; tomato seeds, 1 mg a.i./seed): 5.8% | average rating (gall rating, score 0.1-7) (M. incognita [1]; 1 mg /seed): 4.3

CCN(CC)C(=O)C(Cl)=C(C)OP(=O)(OC)OC [Phosphamidon]
Efficacy (%) (M. incognita [3]; [8]): 0% | Efficacy (%) (M. incognita [3]; [7]): 2.0% | Efficacy (%) (M. incognita [3]; tomato seeds, 0.1 mg a.i./seed): 0% | Efficacy (%) (M. incognita [3]; tomato seeds, 0.3 mg a.i./seed): 0% | Efficacy (%) (M. incognita [3]; tomato seeds, 1 mg a.i./seed): 0% | average rating (gall rating, score 0.1-7) (M. incognita [3]; 1 mg /seed): 4.1

CCOP(=S)(OCC)SCSC(C)(C)C [Terbufos]
Efficacy (%) (M. incognita [3]; [8]): 0% | Efficacy (%) (M. incognita [3]; [7]): 0% | Efficacy (%) (M. incognita [3]; tomato seeds, 0.1 mg a.i./seed): 0% | Efficacy (%) (M. incognita [3]; tomato seeds, 0.3 mg a.i./seed): 0% | Efficacy (%) (M. incognita [3]; tomato seeds, 1 mg a.i./seed): 0% | average rating (gall rating, score 0.1-7) (M. incognita [3]; 1 mg /seed): 4.1

CS/C(C)=N\OC(=O)N(C)SN(C)C(=O)O/N=C(\C)SC [Thiodicarb]
Efficacy (%) (M. incognita [6]; 0.03 mg a.i./seed): 0% | Efficacy (%) (M. incognita [6]; 0.1 mg a.i./seed): 0% | Efficacy (%) (M. incognita [6]; 0.3 mg a.i./seed): 0% | Efficacy (%) (M. incognita [6]; 1 mg a.i./seed): 1.9% | average rating (gall rating, score 0.1-7) (M. incognita [6]; 1 mg a.i./seed): 4.3
